# Measured values published in US7576218B2, “4-phenylpiperdine-pyrazole CCR1 antagonists” (ChemoCentryx, Inc., priority 2005, dated 2009).
# Target: T1, CCR1 (Homo sapiens, UniProt P32246)
# T1 sequence (P32246 1-355): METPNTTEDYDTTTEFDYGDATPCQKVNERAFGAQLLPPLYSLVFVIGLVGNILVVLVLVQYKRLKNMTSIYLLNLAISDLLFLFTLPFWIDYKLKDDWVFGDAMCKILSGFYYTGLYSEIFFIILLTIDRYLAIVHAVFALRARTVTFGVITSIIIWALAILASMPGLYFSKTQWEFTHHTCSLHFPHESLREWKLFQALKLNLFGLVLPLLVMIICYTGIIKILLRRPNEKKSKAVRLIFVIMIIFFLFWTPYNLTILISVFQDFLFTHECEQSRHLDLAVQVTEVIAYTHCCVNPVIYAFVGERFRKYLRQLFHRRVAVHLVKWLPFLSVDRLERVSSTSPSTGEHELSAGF
# Test: CCR1 chemotaxis assay or binding assay (inhibition of CCR1 ligand binding / CCR1 mediated migration)
# Method: Cells were grown under 5% CO2/95% air, 100% humidity at 37° C. and subcultured twice weekly at 1:5 (cells were cultured at a density range of 2×10^5 to 2×10^6 cells/mL) and harvested at 1×10^6 cells/mL.
# Monocytes were isolated from human buffy coats using the Miltenyi bead isolation system (Miltenyi, Auburn, Calif.). Briefly, following a Ficoll gradient separation to isolate peripheral blood mononuclear cells, cells were washed with PBS and the red blood cells lysed using standard procedures. Remaining cells were labeled with anti-CD14 antibodies coupled to magnetic beads (Miltenyi Biotech, Auburn, Calif.). Labeled cells were passed through AutoMACS (Miltenyi, Auburn, Calif.) and positive fraction collected.
# CCR1 expressing cells were centrifuged and resuspended in assay buffer (20 mM HEPES pH 7.1, 140 mM NaCl, 1 mM CaCl2, 5 mM MgCl2, and with 0.2% bovine serum albumin) to a concentration of 5×10^6 cells/mL for THP-1 cells and 5×10^5 for monocytes. Binding assays were set up as follows. […] Reactions were aspirated onto GF/B glass filters pre-soaked in 0.3% polyethyleneimine (PEI) solution, on a vacuum cell harvester (Packard Instruments; Meriden, Conn.). Scintillation fluid (40 μl; Microscint 20, Packard Instruments) was added to each well, the plates were sealed and radioactivity measured in a Topcount scintillation counter (Packard Instruments). Control wells containing either diluent only (for total counts) or excess MIP-1α or MIP-1β (1 μg/mL, for non-specific binding) were used to calculate the percent of total inhibition for compound. The computer program Prism from GraphPad, Inc. (San Diego, Calif.) was used to calculate IC50 values.
# Chemotaxis assays were performed using 5 ? m pore polycarbonate, polyvinylpyrrolidone-coated filters in 96-well chemotaxis chambers (Neuroprobe; Gaithersburg, Md.) using chemotaxis buffer (Hank's balanced salt solution (HBSS) and 1% FBS). CCR1 chemokine ligands (i.e., MIP-1α, CCL15/Leukotactin; R&D Systems; Minneapolis, Minn.) are use to evaluate compound mediated inhibition of CCR1 mediated migration. Other chemokines (i.e., SDF-1α; R&D Systems; Minneapolis, Minn.) are used as specificity controls. […] The chambers were incubated 1-2 hours at 37° C., and the number of cells in the lower chamber quantified either by direct cell counts in five high powered fields per well or by the CyQuant assay (Molecular Probes), a fluorescent dye method that measures nucleic acid content and microscopic observation.
# Equal numbers of cells were added to each well in the plate. The cells were then incubated with radiolabeled MIP-1α. Unbound ligand was removed by washing the cells, and bound ligand was determined by quantifying radioactive counts. […] Percent inhibition was determined by the equation:
# In the assay, the amount of compound was varied; while cell number and ligand concentration were held constant.
# THP-1 myelomonocytic leukemia cells, which resemble monocytes, as wells as freshly isolated monocytes, were used as targets for chemoattraction by CCR1 chemokine ligands (i.e., MIP-1α, CCL15/leukotactin). […] In this assay, the amount of compound was varied; while cell number and chemokine agonist concentrations were held constant. After the chemotaxis chambers were incubated 1-2 hours at 37° C., the responding cells in the lower chamber were quantified by labeling with the CyQuant assay (Molecular Probes), a fluorescent dye method that measures nucleic acid content, and by measuring with a Spectrafluor Plus (Tecan).
row,SMILES,IC50
1,"Cc1c(Cl)c(C(F)(F)F)nn1CC(=O)N1CCC(C#N)(c2ccc(Cl)cc2)CC1 [Example 1, 1-[2-(4-chloro-5-methyl-3-trifluoromethyl-pyrazol-1-yl)-acetyl]-4-(4-chloro-phenyl)-piperidine-4-carbonitrile]",< 1000 nM
2,"COC(=O)C1(c2ccc(Cl)cc2)CCN(C(=O)Cn2nc(C(F)(F)F)c(Cl)c2C)CC1 [Example 2, 1-[2-(4-chloro-5-methyl-3-trifluoromethyl-pyrazol-1-yl)-acetyl]-4-(4-chloro-phenyl)-piperidine-4-carboxylic acid methyl ester]",< 1000 nM
3,"Cc1c(Cl)c(-c2ncco2)nn1CC(=O)N1CCC(C#N)(c2ccc(Cl)cc2)CC1 [Example 3, 1-[2-(4-chloro-5-methyl-3-oxazol-2-yl-pyrazol-1-yl)-acetyl]-4-(4-chloro-phenyl)-piperidine-4-carbonitrile]",< 1000 nM
4,"COc1cc(C2(O)CCN(C(=O)Cn3nc(C(F)(F)F)c(Cl)c3C)CC2)ccc1Cl [Example 4, 1-[4-(4-Chloro-3-methoxy-phenyl)-4-hydroxy-piperidin-1-yl]-2-(4-chloro-5-methyl-3-trifluoromethyl-pyrazol-1-yl)-ethanone]",< 1000 nM
5,"COc1cc(C2(O)CCN(C(=O)Cn3nc(-c4ncco4)c(Cl)c3C)CC2)ccc1Cl [Example 5, 1-[4-(4-Chloro-3-methoxy-phenyl)-4-hydroxy-piperidin-1-yl]-2-(4-chloro-5-methyl-3-oxazol-2-yl-pyrazol-1-yl)-ethanone]",< 1000 nM
6,"COc1cc(C2(O)CCN(C(=O)COc3ccc(Cl)cc3)CC2)ccc1Cl [Example 6, 1-[4-(4-Chloro-3-methoxy-phenyl)-4-hydroxy-piperidin-1-yl]-2-(4-chloro-phenoxy)-ethanone]",< 1000 nM
7,"Cc1c(Cl)c(C(F)(F)F)nn1CC(=O)N1CCC(O)(c2ccccc2)CC1 [Example 7, 2-(4-Chloro-5-methyl-3-trifluoromethyl-pyrazol-1-yl)-1-(4-hydroxy-4-phenyl-piperidin-1-yl)-ethanone]",1000 to 25000 nM
8,"Cc1c(Cl)c(C(F)(F)F)nn1CC(=O)N1CCC(O)(c2ccc(Cl)cc2)CC1 [Example 8, 2-(4-Chloro-5-methyl-3-trifluoromethyl-pyrazol-1-yl)-1-(4-hydroxy-4-(4-chloro)-phenyl-piperidin-1-yl)-ethanone]",< 1000 nM
9,"Cc1c(Cl)c(C(F)(F)F)nn1CC(=O)N1CCC(O)(c2ccc(Cl)c(C(F)(F)F)c2)CC1 [Example 9, 2-(4-Chloro-5-methyl-3-trifluoromethyl-pyrazol-1-yl)-1-(4-hydroxy-4-(4-chloro-3-trifluoromethyl)-phenyl-piperidin-1-yl)-ethanone]",1000 to 25000 nM
10,"Cc1c(Cl)c(C(F)(F)F)nn1CC(=O)N1CCC(O)(c2ccc(Br)cc2)CC1 [Example 10, 2-(4-Chloro-5-methyl-3-trifluoromethyl-pyrazol-1-yl)-1-(4-hydroxy-4-(4-bromo)-phenyl-piperidin-1-yl)-ethanone]",1000 to 25000 nM
11,"Cc1c(Cl)c(C(F)(F)F)nn1CC(=O)N1CCC(O)(c2cccc(C(F)(F)F)c2)CC1 [Example 11, 2-(4-Chloro-5-methyl-3-trifluoromethyl-pyrazol-1-yl)-1-(4-hydroxy-4-(3-trifluoromethyl)-phenyl-piperidin-1-yl)-ethanone]",1000 to 25000 nM
12,"Cc1c(Cl)c(C(F)(F)F)nn1CC(=O)N1CCC(C#N)(c2ccccc2)CC1 [Example 12, 1-[2-(4-chloro-5-methyl-3-trifluoromethyl-pyrazol-1-yl)-acetyl]-4-phenyl-piperidine-4-carbonitrile]",1000 to 25000 nM
13,"CNC(=O)C1(c2ccc(Cl)cc2)CCN(C(=O)Cn2nc(C(F)(F)F)c(Cl)c2C)CC1 [Example 13, 1-[2-(4-chloro-5-methyl-3-trifluoromethyl-pyrazol-1-yl)-acetyl]-4-(4-chloro-phenyl)-piperidine-4-methylamide]",1000 to 25000 nM
14,"CCN(CC)C(=O)C1(c2ccc(Cl)cc2)CCN(C(=O)Cn2nc(C(F)(F)F)c(Cl)c2C)CC1 [Example 14, 1-[2-(4-chloro-5-methyl-3-trifluoromethyl-pyrazol-1-yl)-acetyl]-4-(4-chloro-phenyl)-piperidine-4-diethylamide]",1000 to 25000 nM
15,"Cc1c(Cl)c(C(F)(F)F)nn1CC(=O)N1CCC(C(=O)N2CCCC2)(c2ccc(Cl)cc2)CC1 [Example 15, 2-(4-chloro-5-methyl-3-trifluoromethyl-pyrazol-1-yl)-1-[4-(4-chloro-phenyl)-4-(pyrrolidine-1-carbonyl)-piperidin-1-yl]-ethanone]",1000 to 25000 nM
16,"Cc1c(Cl)c(C(F)(F)F)nn1CC(=O)N1CCC(C(=O)N2CCCCC2)(c2ccc(Cl)cc2)CC1 [Example 16, 2-(4-chloro-5-methyl-3-trifluoromethyl-pyrazol-1-yl)-1-[4-(4-chloro-phenyl)-4-(piperidine-1-carbonyl)-piperidin-1-yl]-ethanone]",1000 to 25000 nM
17,"Cc1c(Cl)c(C(F)(F)F)nn1CC(=O)N1CCC(C(=O)N2CCNCC2)(c2ccc(Cl)cc2)CC1 [Example 17, 2-(4-chloro-5-methyl-3-trifluoromethyl-pyrazol-1-yl)-1-[4-(4-chloro-phenyl)-4-(piperazine-1-carbonyl)-piperidin-1-yl]-ethanone]",> 25000 nM
18,"Cc1c(Cl)c(C(F)(F)F)nn1CC(=O)N1CCC(C(=O)N2CCN(C)CC2)(c2ccc(Cl)cc2)CC1 [Example 18, 2-(4-chloro-5-methyl-3-trifluoromethyl-pyrazol-1-yl)-1-[4-(4-chloro-phenyl)-4-(4-methyl-piperazine-1-carbonyl)-piperidin-1-yl]-ethanone]",> 25000 nM
19,"Cc1c(Cl)c(C(F)(F)F)nn1CC(=O)N1CCC(C(=O)N2CCOCC2)(c2ccc(Cl)cc2)CC1 [Example 19, 2-(4-chloro-5-methyl-3-trifluoromethyl-pyrazol-1-yl)-1-[4-(4-chloro-phenyl)-4-(4-morpholine-1-carbonyl)-piperidin-1-yl]-ethanone morpholine]",1000 to 25000 nM
20,"Cc1c(Cl)c(C(F)(F)F)nn1CC(=O)N1CCC(c2ccc(Cl)cc2)(c2nnn[nH]2)CC1 [Example 20, 2-(4-chloro-5-methyl-3-trifluoromethyl-pyrazol-1-yl)-1-[4-(4-chloro-phenyl)-4-(1H-tetrazol-5-yl)-piperidin-1-yl]-ethanone]",1000 to 25000 nM
21,"Cc1c(Cl)c(C(F)(F)F)nn1CC(=O)N1CCC(C(=N)NO)(c2ccc(Cl)cc2)CC1 [Example 21, 1-[2-(4-chloro-5-methyl-3-trifluoromethyl-pyrazol-1-yl)-acetyl]-4-(4-chloro-phenyl)-N-hydroxy-piperidine-4-carboxamidine]",< 1000 nM
22,"Cc1c(Cl)c(C(F)(F)F)nn1CC(=O)N1CCC(C(N)=O)(c2ccc(Cl)cc2)CC1 [Example 22, 1-[2-(4-chloro-5-methyl-3-trifluoromethyl-pyrazol-1-yl)-acetyl]-4-(4-chloro-phenyl)-piperidine-4-carboxylic acid amide]",< 1000 nM
23,"Cc1c(Cl)c(C(F)(F)F)nn1CC(=O)N1CCC(CO)(c2ccc(Cl)cc2)CC1 [Example 23, 2-(4-chloro-5-methyl-3-trifluoromethyl-pyrazol-1-yl)-1-[4-(4-chloro-phenyl)-4-hydroxymethyl-piperidin-1-yl]-ethanone]",1000 to 25000 nM
24,"Cc1c(Cl)c(C(F)(F)F)nn1CC(=O)N1CCC(CN)(c2ccc(Cl)cc2)CC1 [Example 24, 1-[4-aminomethyl-4-(4-chloro-phenyl)-piperidin-1-yl]-2-(4-chloro-5-methyl-3-trifluoromethyl-pyrazol-1-yl)-ethanone]",1000 to 25000 nM
25,"Cc1c(Cl)c(C(F)(F)F)nn1CC(=O)N1CCC(C(=O)O)(c2ccc(Cl)cc2)CC1 [Example 25, 1-[2-(4-chloro-5-methyl-3-trifluoromethyl-pyrazol-1-yl)-acetyl]-4-(4-chloro-phenyl)-piperidine-4-carboxylic acid]",> 25000 nM
26,COc1cc(C2(C#N)CCN(C(=O)Cn3nc(C(F)(F)F)c(Cl)c3C)CC2)ccc1Cl [Example 26],< 1000 nM
27,"CC(=O)C1(c2ccccc2)CCN(C(=O)Cn2nc(C(F)(F)F)c(Cl)c2C)CC1 [Example 27, 1-(4-Acetyl-4-phenyl-piperidin-1-yl)-2-(4-chloro-5-methyl-3-trifluoromethyl-pyrazol-1-yl)-ethanone]",1000 to 25000 nM
28,"CCC(=O)C1(c2ccccc2)CCN(C(=O)Cn2nc(C(F)(F)F)c(Cl)c2C)CC1 [Example 28, 1-(4-ethylcarbonyl-4-phenyl-piperidin-1-yl)-2-(4-chloro-5-methyl-3-trifluoromethyl-pyrazol-1-yl)-ethanone]",1000 to 25000 nM
29,"CCCC(=O)C1(c2ccccc2)CCN(C(=O)Cn2nc(C(F)(F)F)c(Cl)c2C)CC1 [Example 29, 1-(4-propylcarbonyl-4-phenyl-piperidin-1-yl)-2-(4-chloro-5-methyl-3-trifluoromethyl-pyrazol-1-yl)-ethanone]",< 1000 nM
